ChEMBL document CHEMBL3045889 (Pest Manag Sci, 2012)

System: Fusarium graminearum
Assay: Antifungal activity against Fusarium graminearum JT04 assessed as inhibition of mycelial growth
Type: functional, organism-based

COC(=O)Nc1nc2ccccc2[nH]1 [CARBENDAZIM]
MIC: > 200 µg/mL
